From US7329670B1, “Inhibition of RAF kinase using aryl and heteroaryl substituted heterocyclic ureas” (Bayer Pharmaceuticals Corporation, priority 1997, dated 2008)

melting point	SMILES
195 to 198 °C	CC(C)(C)c1cc(NC(=O)Nc2cccc(Cl)c2Cl)c(-c2ccncc2)o1 [Entry 40, N-(2-(4-Pyridinyl)-5-tert-butyl-3-furyl)-N′-(2,3-dichlorophenyl)urea]
171 to 173 °C	CC(C)(C)c1cc(NC(=O)Nc2cccc(Cl)c2Cl)c(-c2ccccc2)s1 [Entry 41, N-(2-Phenyl-5-tert-butyl-3-thienyl)-N′-(2,3-dichlorophenyl)urea]
